± gives the expanded uncertainty stated by the source.
Test: activity coefficient (dimensionless); of the first substance listed, at infinite dilution; xn = mol fraction of the nth substance listed
Conditions: Liquid, Chromatography, x1 = 0

Row | Structure (SMILES) | activity coefficient (303.15 K) | activity coefficient (308.15 K) | activity coefficient (313.15 K) | activity coefficient (318.15 K)
1 | C=CCCCC [hex-1-ene] + CCCCCCCCCCCCCC[P+](CCCCCC)(CCCCCC)CCCCCC.O=S(=O)([N-]S(=O)(=O)C(F)(F)F)C(F)(F)F | 0.88 ± 0.06 | 0.9 ± 0.06 | 0.92 ± 0.06 | 0.97 ± 0.06
2 | CCCCCC [hexane] + CCCCCCCCCCCCCC[P+](CCCCCC)(CCCCCC)CCCCCC.O=S(=O)([N-]S(=O)(=O)C(F)(F)F)C(F)(F)F | 1.09 ± 0.07 | 1.1 ± 0.07 | 1.13 ± 0.07 | 1.17 ± 0.07
3 | c1ccccc1 [benzene] + CCCCCCCCCCCCCC[P+](CCCCCC)(CCCCCC)CCCCCC.O=S(=O)([N-]S(=O)(=O)C(F)(F)F)C(F)(F)F | 0.38 ± 0.03 | 0.39 ± 0.03 | 0.4 ± 0.03 | 0.42 ± 0.04
4 | CCO [ethanol] + CCCCCCCCCCCCCC[P+](CCCCCC)(CCCCCC)CCCCCC.O=S(=O)([N-]S(=O)(=O)C(F)(F)F)C(F)(F)F | 1.36 ± 0.09 | 1.33 ± 0.09 | 1.31 ± 0.09 | 1.3 ± 0.08
5 | C#CCCCCCC [1-octyne] + CCCCCCCCCCCCCC[P+](CCCCCC)(CCCCCC)CCCCCC.O=S(=O)([N-]S(=O)(=O)C(F)(F)F)C(F)(F)F | 0.53 ± 0.04 | 0.55 ± 0.04 | 0.58 ± 0.04 | 0.63 ± 0.04
6 | CCCO [propan-1-ol] + CCCCCCCCCCCCCC[P+](CCCCCC)(CCCCCC)CCCCCC.O=S(=O)([N-]S(=O)(=O)C(F)(F)F)C(F)(F)F | 1.42 ± 0.09 | 1.4 ± 0.09 | 1.39 ± 0.09 | 1.38 ± 0.09
7 | C=CCCCCCC [oct-1-ene] + CCCCCCCCCCCCCC[P+](CCCCCC)(CCCCCC)CCCCCC.O=S(=O)([N-]S(=O)(=O)C(F)(F)F)C(F)(F)F | 1.11 ± 0.07 | 1.14 ± 0.07 | 1.16 ± 0.07 | 1.21 ± 0.08
8 | C#CCCCC [1-hexyne] + CCCCCCCCCCCCCC[P+](CCCCCC)(CCCCCC)CCCCCC.O=S(=O)([N-]S(=O)(=O)C(F)(F)F)C(F)(F)F | 0.66 ± 0.05 | 0.68 ± 0.05 | 0.71 ± 0.05 | 0.74 ± 0.05
9 | CCCCC [pentane] + CCCCCCCCCCCCCC[P+](CCCCCC)(CCCCCC)CCCCCC.O=S(=O)([N-]S(=O)(=O)C(F)(F)F)C(F)(F)F | 0.94 ± 0.06 | 0.96 ± 0.06 | 0.99 ± 0.06 | 1.02 ± 0.06
10 | CO [methanol] + CCCCCCCCCCCCCC[P+](CCCCCC)(CCCCCC)CCCCCC.O=S(=O)([N-]S(=O)(=O)C(F)(F)F)C(F)(F)F | 1.26 ± 0.08 | 1.24 ± 0.08 | 1.23 ± 0.08 | 1.23 ± 0.08
11 | C=CCCC [1-pentene] + CCCCCCCCCCCCCC[P+](CCCCCC)(CCCCCC)CCCCCC.O=S(=O)([N-]S(=O)(=O)C(F)(F)F)C(F)(F)F | 0.78 ± 0.05 | 0.8 ± 0.05 | 0.82 ± 0.05 | 0.85 ± 0.05
12 | CCCCCCC [heptane] + CCCCCCCCCCCCCC[P+](CCCCCC)(CCCCCC)CCCCCC.O=S(=O)([N-]S(=O)(=O)C(F)(F)F)C(F)(F)F | 1.26 ± 0.08 | 1.27 ± 0.08 | 1.3 ± 0.08 | 1.33 ± 0.09
13 | C1CCCCC1 [cyclohexane] + CCCCCCCCCCCCCC[P+](CCCCCC)(CCCCCC)CCCCCC.O=S(=O)([N-]S(=O)(=O)C(F)(F)F)C(F)(F)F | 0.78 ± 0.05 | 0.8 ± 0.05 | 0.82 ± 0.05 | 0.85 ± 0.05
14 | C#CCCCCC [1-heptyne] + CCCCCCCCCCCCCC[P+](CCCCCC)(CCCCCC)CCCCCC.O=S(=O)([N-]S(=O)(=O)C(F)(F)F)C(F)(F)F | 0.59 ± 0.04 | 0.63 ± 0.04 | 0.66 ± 0.05 | 0.7 ± 0.05
15 | CCCCCCCC [octane] + CCCCCCCCCCCCCC[P+](CCCCCC)(CCCCCC)CCCCCC.O=S(=O)([N-]S(=O)(=O)C(F)(F)F)C(F)(F)F | 1.32 ± 0.09 | 1.36 ± 0.09 | 1.4 ± 0.09 | 1.46 ± 0.1
16 | C1CCCC1 [cyclopentane] + CCCCCCCCCCCCCC[P+](CCCCCC)(CCCCCC)CCCCCC.O=S(=O)([N-]S(=O)(=O)C(F)(F)F)C(F)(F)F | 0.68 ± 0.05 | 0.69 ± 0.05 | 0.71 ± 0.05 | 0.73 ± 0.05
17 | C1CCCCCC1 [cycloheptane] + CCCCCCCCCCCCCC[P+](CCCCCC)(CCCCCC)CCCCCC.O=S(=O)([N-]S(=O)(=O)C(F)(F)F)C(F)(F)F | 0.88 ± 0.06 | 0.91 ± 0.06 | 0.92 ± 0.06 | 0.94 ± 0.06
18 | C=CCCCCC [1-heptene] + CCCCCCCCCCCCCC[P+](CCCCCC)(CCCCCC)CCCCCC.O=S(=O)([N-]S(=O)(=O)C(F)(F)F)C(F)(F)F | 1 ± 0.06 | 1.02 ± 0.06 | 1.04 ± 0.07 | 1.09 ± 0.07
